Results reported in patent US7767659B2, “Synthesis of naturally occurring ecteinascidins and related compounds” (Pharma Mar, S.A., priority 2002, dated 2010).

Tests used:
A-549 = assay: cells; details: Homo sapiens, A549, 48 h; for GI50: read-out: A549 GI50; for CC50: read-out: A549 LC50; for IC (TGI): read-out: A549 TGI
Procedure, shortened: (§1)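 Colorimetric SRB read (490 nm) on triplicate wells after 48 h at 37 °C, 5% CO2. Dose range 10 to 10^−8 μg/ml; 5×10^3 cells/well pre-attached 18 h.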

HT-29 = assay: cells; details: Homo sapiens, HT-29, 48 h; for GI50: read-out: HT29 GI50; for CC50: read-out: HT29 LC50; for IC (TGI): read-out: HT29 TGI
Procedure, shortened: as §1

LoVo = assay: cells; details: Homo sapiens, LoVo, 48 h; for GI50: read-out: LOVO GI50; for CC50: read-out: LOVO LC50; for IC (TGI): read-out: LOVO TGI
Procedure, shortened: as §1

DU-145 = assay: Inhibition of cells growth by colorimetric assay (SRB); details: Homo sapiens, DU-145, 48 h; for GI50: read-out: DU145 GI50; for CC50: read-out: DU145 LC50; for IC (TGI): read-out: DU145 TGI
Procedure, shortened: as §1

HeLa-APL = assay: as above; details: Homo sapiens, 48 h; for GI50: read-out: HELA-APL GI50; for CC50: read-out: HELA-APL LC50; for IC (TGI): read-out: HELA-APL TGI
Procedure, shortened: as §1

HeLa = assay: as above; details: Homo sapiens, HeLa, 48 h; for GI50: read-out: HELA GI50; for CC50: read-out: HELA LC50; for IC (TGI): read-out: HELA TGI
Procedure, shortened: as §1

IGROV-1 = assay: as above; details: Homo sapiens, IGROV-1, 48 h; for GI50: read-out: IGROV GI50; for CC50: read-out: IGROV LC50; for IC (TGI): read-out: IGROV TGI
Procedure, shortened: as §1

IGROV-ET = assay: as above; details: Homo sapiens, 48 h; for GI50: read-out: IGROV-ET GI50; for CC50: read-out: IGROV-ET LC50; for IC (TGI): read-out: IGROV-ET TGI
Procedure, shortened: as §1

K-562 = assay: as above; details: Homo sapiens, K562, 48 h; for GI50: read-out: K562 GI50; for CC50: read-out: K562 LC50; for IC (TGI): read-out: K562 TGI
Procedure, shortened: as §1

LNCaP = assay: as above; details: Homo sapiens, LNCaP, 48 h; for GI50: read-out: LNCAP GI50; for CC50: read-out: LNCAP LC50; for IC (TGI): read-out: LNCAP TGI
Procedure, shortened: as §1

LoVo-Dox = assay: as above; details: Homo sapiens, 48 h; for GI50: read-out: LOVO-DOX GI50; for CC50: read-out: LOVO-DOX LC50; for IC (TGI): read-out: LOVO-DOX TGI
Procedure, shortened: as §1

PANC-1 = assay: as above; details: Homo sapiens, PANC-1, 48 h; for GI50: read-out: PANC-1 GI50; for CC50: read-out: PANC-1 LC50; for IC (TGI): read-out: PANC-1 TGI
Procedure, shortened: as §1

SK-BR-3 = assay: as above; details: Homo sapiens, SK-BR-3, 48 h; for GI50: read-out: SK-BR3 GI50; for CC50: read-out: SK-BR3 LC50; for IC (TGI): read-out: SK-BR3 TGI
Procedure, shortened: as §1

SK-MEL-28 = assay: as above; details: Homo sapiens, SK-MEL-28, 48 h; for GI50: read-out: MEL-28 GI50; for CC50: read-out: MEL-28 LC50; for IC (TGI): read-out: MEL-28 TGI
Procedure, shortened: as §1

In the case of `COc1ccc2[nH]c3c(c2c1)CCN[C@]31CS[C@@H]2c3c(OC(C)=O)c(C)c4c(c3[C@H](COC1=O)N1C2[C@@H]2N[C@@H](Cc3cc(C)c(OC)c(O)c32)[C@@H]1C#N)OCO4` (stereo partly drawn) [compound 60], the GI50 (A-549) is reported as 3.6 nM, the CC50 (A-549) is reported as 76 nM and the IC (TGI) (A-549) is reported as 13.1 nM. It also gave a GI50 (HT-29) of 2.28 nM, a CC50 (HT-29) of 12800 nM and an IC (TGI) (HT-29) of 13.1 nM. It also gave a GI50 (LoVo) of 3.27 nM, a CC50 (LoVo) of 2900 nM and an IC (TGI) (LoVo) of 8.23 nM. The GI50 (DU-145) was 1.8 nM, the CC50 (DU-145) was 7130 nM and the IC (TGI) (DU-145) was 1360 nM. It also gave a GI50 (HeLa-APL) of 1.37 nM, a CC50 (HeLa-APL) of 9.27 nM and an IC (TGI) (HeLa-APL) of 3.58 nM. It also gave a GI50 (HeLa) of 1.03 nM, a CC50 (HeLa) of 12.8 nM and an IC (TGI) (HeLa) of 3.41 nM. It also gave a GI50 (IGROV-1) of 1.38 nM, a CC50 (IGROV-1) of 11.8 nM and an IC (TGI) (IGROV-1) of 4.03 nM. The GI50 (IGROV-ET) was 20.9 nM, the CC50 (IGROV-ET) was 2890 nM and the IC (TGI) (IGROV-ET) was 53.1 nM. It also gave a GI50 (K-562) of 0.809 nM, a CC50 (K-562) of 8570 nM and an IC (TGI) (K-562) of 13.2 nM. It also gave a GI50 (LNCaP) of 0.415 nM, a CC50 (LNCaP) of 5.03 nM and an IC (TGI) (LNCaP) of 1.42 nM. For the same molecule, the GI50 (LoVo-Dox) was 163 nM, the CC50 (LoVo-Dox) was 12800 nM and the IC (TGI) (LoVo-Dox) was 757 nM. The GI50 (PANC-1) was 3.31 nM, the CC50 (PANC-1) was 12800 nM and the IC (TGI) (PANC-1) was 11.9 nM. For the same molecule, the GI50 (SK-BR-3) was 0.431 nM, the CC50 (SK-BR-3) was 42.2 nM and the IC (TGI) (SK-BR-3) was 1.22 nM. It also gave a GI50 (SK-MEL-28) of 1.91 nM, a CC50 (SK-MEL-28) of 9.55 nM and an IC (TGI) (SK-MEL-28) of 4.27 nM.
`COc1c(C)cc2c(c1O)[C@H]1N[C@@H](C2)[C@H](C#N)N2C1[C@@H]1SC[C@]3(NCCc4c3[nH]c3ccc(O)cc43)C(=O)OC[C@H]2c2c3c(c(C)c(OC(C)=O)c21)OCO3` (stereo partly drawn) [compound 61] gave a GI50 (A-549) of 24.3 nM, a CC50 (A-549) of 104 nM and an IC (TGI) (A-549) of 50.1 nM. The GI50 (HT-29) was 6.58 nM, the CC50 (HT-29) was 13100 nM and the IC (TGI) (HT-29) was 1400 nM. The GI50 (LoVo) was 17.1 nM, the CC50 (LoVo) was 8230 nM and the IC (TGI) (LoVo) was 70.9 nM. The GI50 (DU-145) was 5.14 nM, the CC50 (DU-145) was 7970 nM and the IC (TGI) (DU-145) was 9.34 nM. For the same molecule, the GI50 (HeLa-APL) was 2.98 nM, the CC50 (HeLa-APL) was 10.5 nM and the IC (TGI) (HeLa-APL) was 5.6 nM. For the same molecule, the GI50 (HeLa) was 3.56 nM, the CC50 (HeLa) was 11.8 nM and the IC (TGI) (HeLa) was 6.49 nM. For the same molecule, the GI50 (IGROV-1) was 4.82 nM, the CC50 (IGROV-1) was 525 nM and the IC (TGI) (IGROV-1) was 9.64 nM. For the same molecule, the GI50 (IGROV-ET) was 225 nM, the CC50 (IGROV-ET) was 4770 nM and the IC (TGI) (IGROV-ET) was 712 nM. The GI50 (K-562) was 2.56 nM, the CC50 (K-562) was 642 nM and the IC (TGI) (K-562) was 8.62 nM. The GI50 (LNCaP) was 1.17 nM, the CC50 (LNCaP) was 6.92 nM and the IC (TGI) (LNCaP) was 2.94 nM. The GI50 (LoVo-Dox) was 495 nM, the CC50 (LoVo-Dox) was 13100 nM and the IC (TGI) (LoVo-Dox) was 1760 nM. For the same molecule, the GI50 (PANC-1) was 4.69 nM, the CC50 (PANC-1) was 13100 nM and the IC (TGI) (PANC-1) was 15.4 nM. The GI50 (SK-BR-3) was 4.28 nM, the CC50 (SK-BR-3) was 245 nM and the IC (TGI) (SK-BR-3) was 9 nM. It also gave a GI50 (SK-MEL-28) of 6.19 nM, a CC50 (SK-MEL-28) of 60.7 nM and an IC (TGI) (SK-MEL-28) of 18.8 nM.
`COc1c(C)cc2c(c1O)[C@H]1N[C@@H](C2)[C@H](C#N)N2C1[C@@H]1SC[C@]3(NCCc4c3[nH]c3ccc(C)cc43)C(=O)OC[C@H]2c2c3c(c(C)c(OC(C)=O)c21)OCO3` (stereo partly drawn) [compound 62] showed a GI50 (A-549) of 4.56 nM, a CC50 (A-549) of 334 nM and an IC (TGI) (A-549) of 16.5 nM. It also gave a GI50 (HT-29) of 4.03 nM, a CC50 (HT-29) of 12500 nM and an IC (TGI) (HT-29) of 283 nM. It also gave a GI50 (LoVo) of 5.03 nM, a CC50 (LoVo) of 1540 nM and an IC (TGI) (LoVo) of 17.9 nM. For the same molecule, the GI50 (DU-145) was 3.3 nM, the CC50 (DU-145) was 3590 nM and the IC (TGI) (DU-145) was 10.4 nM. For the same molecule, the GI50 (HeLa-APL) was 2.3 nM, the CC50 (HeLa-APL) was 10.3 nM and the IC (TGI) (HeLa-APL) was 4.88 nM. It also gave a GI50 (HeLa) of 2.37 nM, a CC50 (HeLa) of 11 nM and an IC (TGI) (HeLa) of 5.11 nM. For the same molecule, the GI50 (IGROV-1) was 2.59 nM, the CC50 (IGROV-1) was 3900 nM and the IC (TGI) (IGROV-1) was 6.55 nM. The GI50 (IGROV-ET) was 26.6 nM, the CC50 (IGROV-ET) was 2920 nM and the IC (TGI) (IGROV-ET) was 69.5 nM. The GI50 (K-562) was 1.94 nM, the CC50 (K-562) was 6020 nM and the IC (TGI) (K-562) was 11 nM. For the same molecule, the GI50 (LNCaP) was 3.01 nM, the CC50 (LNCaP) was 8.4 nM and the IC (TGI) (LNCaP) was 5.03 nM. It also gave a GI50 (LoVo-Dox) of 136 nM, a CC50 (LoVo-Dox) of 13100 nM and an IC (TGI) (LoVo-Dox) of 558 nM. The GI50 (PANC-1) was 3.86 nM, the CC50 (PANC-1) was 4750 nM and the IC (TGI) (PANC-1) was 13.5 nM. For the same molecule, the GI50 (SK-BR-3) was 1.01 nM, the CC50 (SK-BR-3) was 103 nM and the IC (TGI) (SK-BR-3) was 4.74 nM. It also gave a GI50 (SK-MEL-28) of 2.46 nM, a CC50 (SK-MEL-28) of 9.78 nM and an IC (TGI) (SK-MEL-28) of 4.92 nM.
